# Assay results taken from the supplement of paper PMC10307832.
# How the values were obtained:
# Test in all cases: relative viability (nuclei count vs DMSO), 5 days (fraction); higher = more cells survive
# ABC-1 = system: ABC-1
# How it was run: (§1)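 A single step with final 0.05% Triton X-100, 1% formaldehyde and 1 ug/ml Hoechst fixed the cells and stained nuclei 5 days after treatment. Lung cancer cell lines in 1536-well plates had been treated by pin tool the day after seeding with one drug alone or a fixed anchor-drug dose plus five library-drug doses (not always all listed) in √10 steps, and nuclei were counted on 4× images. Relative viability is the ratio of nuclei in treated wells to nuclei in vehicle wells, taken as the median of duplicate plates.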
# SK-MES-1 = system: SK-MES-1
# How it was run: as §1
# LXF-289 = system: LXF-289
# How it was run: as §1
# NCI-H596 = system: NCI-H596
# How it was run: as §1
# NCI-H2170 = system: NCI-H2170
# How it was run: as §1
# A-427 = system: A-427
# How it was run: as §1
# NCI-H2009 = system: NCI-H2009
# How it was run: as §1
# NCI-H1993 = system: NCI-H1993
# How it was run: as §1
# HOP-62 = system: HOP-62
# How it was run: as §1
# SW 1573 = system: SW 1573
# How it was run: as §1
smiles,measurement,setting,value
COc1cc2nccc(Oc3ccc(NC(=O)Nc4cc(C)on4)c(Cl)c3)c2cc1OC [Tivozanib] + CS(=O)(=O)N1CCN(Cc2cc3nc(-c4cccc5[nH]ncc45)nc(N4CCOCC4)c3s2)CC1 [Pictilisib] (partner 1 µM),relative viability,ABC-1; first compound 0.005 µM,0.775
same,relative viability,ABC-1; first compound 0.01581 µM,0.673
same,relative viability,ABC-1; first compound 0.05 µM,0.794
same,relative viability,ABC-1; first compound 0.1581 µM,0.646
same,relative viability,ABC-1; first compound 0.5 µM,0.326
same,relative viability,SK-MES-1; first compound 0.005 µM,0.325
same,relative viability,SK-MES-1; first compound 0.01581 µM,0.34
same,relative viability,SK-MES-1; first compound 0.05 µM,0.416
same,relative viability,SK-MES-1; first compound 0.1581 µM,0.289
same,relative viability,SK-MES-1; first compound 0.5 µM,0.363
same,relative viability,LXF-289; first compound 0.005 µM,0.736
same,relative viability,LXF-289; first compound 0.01581 µM,0.814
same,relative viability,LXF-289; first compound 0.05 µM,0.758
same,relative viability,LXF-289; first compound 0.1581 µM,0.764
same,relative viability,LXF-289; first compound 0.5 µM,0.807
same,relative viability,NCI-H596; first compound 0.005 µM,0.28
same,relative viability,NCI-H596; first compound 0.01581 µM,0.364
same,relative viability,NCI-H596; first compound 0.05 µM,0.427
same,relative viability,NCI-H596; first compound 0.1581 µM,0.411
same,relative viability,NCI-H596; first compound 0.5 µM,0.326
same,relative viability,NCI-H2170; first compound 0.005 µM,0.312
same,relative viability,NCI-H2170; first compound 0.01581 µM,0.344
same,relative viability,NCI-H2170; first compound 0.05 µM,0.404
same,relative viability,NCI-H2170; first compound 0.5 µM,0.335
same,relative viability,A-427; first compound 0.005 µM,0.656
same,relative viability,A-427; first compound 0.01581 µM,0.746
same,relative viability,A-427; first compound 0.05 µM,0.705
same,relative viability,A-427; first compound 0.1581 µM,0.511
same,relative viability,A-427; first compound 0.5 µM,0.71
same,relative viability,NCI-H2009; first compound 0.005 µM,0.811
same,relative viability,NCI-H2009; first compound 0.01581 µM,0.776
same,relative viability,NCI-H2009; first compound 0.05 µM,0.833
same,relative viability,NCI-H2009; first compound 0.1581 µM,0.633
same,relative viability,NCI-H2009; first compound 0.5 µM,0.663
same,relative viability,NCI-H1993; first compound 0.005 µM,0.845
same,relative viability,NCI-H1993; first compound 0.01581 µM,0.782
same,relative viability,NCI-H1993; first compound 0.05 µM,0.875
same,relative viability,NCI-H1993; first compound 0.1581 µM,0.709
same,relative viability,NCI-H1993; first compound 0.5 µM,0.737
same,relative viability,HOP-62; first compound 0.005 µM,0.579
same,relative viability,HOP-62; first compound 0.01581 µM,0.744
same,relative viability,HOP-62; first compound 0.05 µM,0.708
same,relative viability,HOP-62; first compound 0.1581 µM,0.368
same,relative viability,HOP-62; first compound 0.5 µM,0.649
same,relative viability,SW 1573; first compound 0.005 µM,0.448
same,relative viability,SW 1573; first compound 0.01581 µM,0.479
same,relative viability,SW 1573; first compound 0.05 µM,0.505
same,relative viability,SW 1573; first compound 0.1581 µM,0.346
same,relative viability,SW 1573; first compound 0.5 µM,0.406
